48 molecules from US20250214977A1, “STAT6 INHIBITORS AND USES THEREOF” (Kymera Therapeutics, Inc., priority 2024, published 2025) can be followed below.

This test deals with Phosphorylation of STAT6 in human A549 cells. Briefly: Phosphorylated STAT6 (pSTAT6) flow cytometry assay in human A549 cells. It is filed as cell-based. From the text:
Example 3. Phosphorylated STAT6 (pSTAT6) Flow Cytometry Assay in Human A549 Cells
Phosphorylation of STAT6 in human A549 cells was quantitatively measured using flow cytometry technology.
Background: Flow cytometry measures light scatter and fluorescence of single cells or particles in a stream.

Setting [1] is: read-out: STAT6 IL4 pSTAT6 assay in A549 cells: Average IC50.

Where two headings read alike, the source gives them in different places.

As usually defined, the IC50 is the midpoint of a concentration-inhibition curve. On to `CC#Cc1cc(-c2cc(C3=CCCN(C(=O)CCn4ccnn4)C3)c(F)c3[nH]c(C(=O)N4CCN(c5ncc(F)cc5OC)CC4)cc23)ccn1` [Example I-634], for which the IC50 under setting [1] is below 100 nM.
Still for that read-out and setting: to `COc1cc(F)cnc1N1CCN(C(=O)c2cc3c(-c4cnn(C5CC5)c4)cc(C4=CCCN(C(=O)CCn5ccnn5)C4)c(F)c3[nH]2)CC1` [Example I-1151] belongs below 100 nM.
Regarding `COc1ccccc1-c1cc(C2=CCCN(C(=O)CCn3ccnn3)C2)c(F)c2[nH]c(C(=O)N3CCN(c4cc(F)c(F)c5ccc(C)nc45)CC3)cc12` [Example I-907], under setting [1], the IC50 is below 100 nM.
Take `COc1ccccc1-c1cc(C2=CCCN(C(=O)CCn3ccnn3)C2)c(F)c2[nH]c(C(=O)N3CC4CN(c5ncccc5OC)CC4C3)cc12` (centres unmarked) [Example I-912]: the IC50 under setting [1] lay in the range of 100 to 1000 nM.
The same measure, in the same setting: to `COc1ccccc1-c1cc(C2=CCCN(C(=O)CCn3ccnn3)C2)c(F)c2[nH]c(C(=O)N(C)Cc3ccc4c(c3)OCO4)cc12` [Example I-976] belongs below 100 nM; to `COc1cccnc1N1CCN(C(=O)c2cc3c(-c4ccc(OC)c5c4OCCO5)cc(C4=CCCN(C(=O)CCn5ccnn5)C4)c(F)c3[nH]2)CC1` [Example I-583], above 100000 nM; to `COc1cc(F)cnc1N1CCN(C(=O)c2cc(-c3cccnc3C3CC3)c3c(c2)cc(C2=CCCN(C(=O)CCn4ccnn4)C2)n3CC2CC2)CC1` [Example I-728], above 100000 nM.
The same measure, in the same setting: to `COc1cnc(N2CCN(C(=O)c3cc4c(-c5ccccc5OC)cc(C5=CCCN(C(=O)CCn6ccnn6)C5)c(F)c4[nH]3)CC2)c(OC)c1` [Example I-352] belongs below 100 nM; to `CCc1nc(C)ccc1-c1cc(C(=O)N2CCN(c3ncc(F)cc3OC)CC2)cc2cc(C3=CCCN(C(=O)CC(=O)O)C3)n(CC(C)C)c12` [Example I-800], above 100000 nM; to `COc1cc(F)cnc1N1CCN(C(=O)c2cc3c(-c4cnc5ccccc5c4OC)cc(C4=CCCN(C(=O)CCn5ccnn5)C4)c(F)c3[nH]2)CC1` [Example I-468], below 100 nM.
Still for that read-out and setting: for `COc1cc(F)cnc1N1CCN(C(=O)c2cc3c(C=CC(C)(C)O)cc(C4=CCCN(C(=O)CCn5ccnn5)C4)c(F)c3[nH]2)CC1` [Example I-1110] the value was below 100 nM.
As to `COc1ccccc1-c1cc(C2=CCCN(C(=O)CCn3ccnn3)C2)c(F)c2[nH]c(C(=O)N3CCN(c4cc5cccnc5cc4F)CC3)cc12` [Example I-924], under setting [1], the IC50 is below 100 nM.
Consider `COc1cc(F)cnc1N1CCN(C(=O)c2cc3c([C@@H]4CCCN4C)cc(C4=CCCN(C(=O)CCn5ccnn5)C4)c(F)c3[nH]2)CC1` (single isomer, unassigned) [Example I-813], for which the IC50 was below 100 nM (listed as I-390, read-out: STAT6 IL4 pSTAT6 assay in A549 cells: Average IC50) and above 100000 nM under setting [1].
Consider `COc1ccccc1-c1cc(C2=CCCN(C(=O)CCn3ccnn3)C2)c(F)c2[nH]c(C(=O)N3CCN(c4cccc(OC(F)(F)F)n4)CC3)cc12` [Example I-430], for which the IC50 under setting [1] fell in the range of 100 to 1000 nM.
Still for that read-out and setting: to `CN(C)C(=O)c1cc2cc(C3=CCCN(C(=O)CCn4ccnn4)C3)cc(NC[C@@H]3CCC(=O)N3C)c2o1` [Example I-896] belongs 100 to 1000 nM; to `COc1cc(C)c(N2CCN(C(=O)c3cc4c(-c5ccccc5OC)cc(C5=CCCN(C(=O)CCn6ccnn6)C5)c(F)c4[nH]3)CC2)c(C)n1` [Example I-958], 100 to 1000 nM; to `CCc1ccncc1-c1cc(C2=CCCN(C(C)=O)C2)c(F)c2[nH]c(C(=O)N3CCN(c4cc(F)cnc4OC)CC3)cc12` [Example I-699], 10000 to 100000 nM.
With `COc1cc(F)cnc1N1CCN(C(=O)c2cc3c([C@H]4CCCN4C)cc(C4=CCCN(C(=O)CCn5ccnn5)C4)c(F)c3[nH]2)CC1` (single isomer, unassigned) [Example I-814], the IC50 (listed as I-391, read-out: STAT6 IL4 pSTAT6 assay in A549 cells: Average IC50) was below 100 nM and the IC50 under setting [1] was above 100000 nM.
For the molecule `COc1cc(F)c(F)cc1-c1cc(C2=CCCN(C(=O)CCn3ccnn3)C2)c(F)c2[nH]c(C(=O)N3CCN(c4ccccc4OC)CC3)cc12` [Example I-600], the concentration for half-maximal inhibition (IC50) under setting [1] was below 100 nM.
The same measure, in the same setting: for `CN(C)C(=O)c1cc2cc(C3=CCCN(C(=O)CCn4ccnn4)C3)cc(-c3cc(F)ccc3C(F)(F)F)c2o1` [Example I-1081] the value was below 100 nM; for `COc1ccccc1-c1cc(C2=CCCN(C(=O)CCn3ccnn3)C2)c(F)c2[nH]c(C(=O)N3CCN(c4ncccc4OC(F)F)CC3)cc12` [Example I-358], below 100 nM; for `COc1ccncc1-c1cc(C2=CCCN(C(=O)CCn3cccn3)C2)c(F)c2[nH]c(C(=O)N3CCN(c4ncc(F)cc4OC)CC3)cc12` [Example I-664], below 100 nM.
The same measure, in the same setting: to `COc1cc(F)cnc1N1CCN(C(=O)c2cc3c(-c4ccnc(F)c4OC)cc(C4=CCCN(C(=O)CCn5ccnn5)C4)c(F)c3[nH]2)CC1` [Example I-656] belongs below 100 nM; to `CCn1c(C2=CCCN(C(=O)CCn3ccnn3)C2)cc2cc(C(=O)N3CCN(c4ncc(F)cc4OC)CC3)cc(-c3ccccc3OC)c21` [Example I-734], below 100 nM; to `COc1ccccc1-c1cc(C2=CCCN(C(=O)CCn3ccnn3)C2)c(F)c2[nH]c(C(=O)N3CCN(c4ncc(Cl)cc4OC)CC3)cc12` [Example I-369], below 100 nM.
Turning to `COc1cc(F)cnc1N1CCN(C(=O)c2cc3c(C4=CCN(C5CC5)CC4)cc(C4=CCCN(C(=O)CCn5ccnn5)C4)c(F)c3[nH]2)CC1` [Example I-1131], the IC50 under setting [1] was below 100 nM.
Turning to `CN(C)C(=O)c1cc2cc(C3=CCCN(C(=O)C(Cn4ccnn4)c4cccc(CO)c4)C3)ccc2o1` (centres unmarked) [Example I-833], under setting [1], the IC50 fell in the range of 100 to 1000 nM.
Same read-out and setting: for `COc1ccccc1-c1cc(C2=CCCN(C(=O)CCn3ccnn3)C2)c(F)c2[nH]c(C(=O)N3CCNC(=O)[C@@H]3C)cc12` [Example I-996] the value was below 100 nM; for `CCc1cc(C)ncc1-c1cc(C2=CCCN(C(=O)CCn3cccn3)C2)c(F)c2[nH]c(C(=O)N3CCN(c4nc(C)ccc4OC)CC3)cc12` [Example I-514], below 100 nM; for `COc1ccccc1-c1cc(C2=CCCN(C(=O)CCn3ccnn3)C2)c(F)c2[nH]c(C(=O)N3CCN(c4cc(C(F)(F)F)ccn4)CC3)cc12` [Example I-935], below 100 nM.
On the same count and under the same terms, to `O=C(CCn1ccnn1)N1CCC=C(c2cc(-c3ccccc3F)c3cc(C(=O)N4CCN(c5ncccc5OC5CC5)CC4)[nH]c3c2F)C1` [Example I-343] belongs below 100 nM; to `CN(C)C(=O)c1cc2cc(C3=CCCN(C(=O)CCn4ccnn4)C3)cc(NCc3ccc(F)cc3)c2o1` [Example I-872], 100 to 1000 nM.
`COc1ccccc1-c1cc(C2=CCCN(C(=O)CCn3ccnn3)C2)c(F)c2[nH]c(C(=O)N3CCN(c4ccccc4C(F)(F)F)CC3)cc12` [Example I-968]: under setting [1], the half-inhibitory concentration (IC50) fell in the range of 100 to 1000 nM.
The same measure, in the same setting: to `CN(C)C(=O)c1cc2cc(C3=CCCN(C(=O)CCn4ccnn4)C3)cc(NCC3CC(F)(F)C3)c2o1` [Example I-873] belongs below 100 nM.
Consider `COc1ccccc1-c1cc(C2=CCCN(C(=O)CCn3ccnn3)C2)c(F)c2[nH]c(C(=O)N3CCN(c4ccccc4)CC3)cc12` [Example I-419], for which, under setting [1], the 50% inhibitory concentration (IC50) is below 100 nM.
Same read-out and setting: to `CN(C)C(=O)c1cc2ccc(C3=CCCN(C(=O)CCc4nccs4)C3)cc2[nH]1` [Example I-821] belongs 100 to 1000 nM; to `Cc1c[nH]c2ncc(-c3cc(C4=CCCN(C(=O)CCn5ccnn5)C4)c(F)c4cc(C(=O)N(C)C)oc34)cc12` [Example I-1100], below 100 nM.
On the same count and under the same terms, to `COc1cc(F)cnc1N1CCN(C(=O)c2cc3c(-c4ccc(C(=O)N5CCCC5)c(F)c4)cc(C4=CCCN(C(=O)CCn5ccnn5)C4)c(F)c3[nH]2)CC1` [Example I-1144] belongs below 100 nM.
`CCC1CN(C)CC1c1cc(C2=CCCN(C(=O)CCn3ccnn3)C2)c(F)c2[nH]c(C(=O)N3CCN(c4ncc(F)cc4OC)CC3)cc12` (centres unmarked) [Example I-1209, 1-[5-[4-(4-ethyl-1-methyl-pyrrolidin-3-yl)-7-fluoro-2-[4-(5-fluoro-3-methoxy-2-pyridyl)piperazine-1-carbonyl]-1H-indol-6-yl]-3,6-dihydro-2H-pyridin-1-yl]-3-(triazol-1-yl)propan-1-one]: the IC50 (listed as I-394, read-out: STAT6 IL4 pSTAT6 assay in A549 cells: Average IC50) was above 100000 nM.
Take `CCc1cc(C)ncc1-c1cc(C2=CCCN(C(=O)CCn3ccnn3)C2)c(F)c2[nH]c(C(=O)N3CCN(c4ncc(F)cc4OC)CC3)cc12` [Example I-707]: the IC50 under setting [1] fell in the range of 10000 to 100000 nM.
Take `COc1ccccc1-c1cc(C2CCCN(C(=O)CCn3ccnn3)C2)c(F)c2[nH]c(C(=O)N3CCN(c4ncccc4OC4CC4)CC3)cc12` (centres unmarked) [Example I-364]: under setting [1], the half-maximal inhibitory concentration (IC50) was below 100 nM.
The same measure, in the same setting: to `COC(=O)c1cc(N2CCN(C(=O)c3cc4c(-c5ccccc5OC)cc(C5=CCCN(C(=O)CCn6ccnn6)C5)c(F)c4[nH]3)CC2)cn1C` [Example I-1004] belongs below 100 nM; to `COc1cc(F)cnc1N1CCN(C(=O)c2cc3c(-c4ccncc4C(C)C)cc(C4=CCCN(C(=O)CCn5ccnn5)C4)c(F)c3[nH]2)CC1` [Example I-703], 10000 to 100000 nM.
Still for that read-out and setting: to `COc1cc(F)cnc1N1CCN(C(=O)c2cc3c(-c4cc(C)nc5ccccc45)cc(C4=CCCN(C(=O)CCn5ccnn5)C4)c(F)c3[nH]2)CC1` [Example I-630] belongs below 100 nM.
The same measure, in the same setting: to `COc1cc(F)cnc1N1CCN(C(=O)c2cc3c(C4=CCN(Cc5ccccc5)CC4)cc(C4=CCCN(C(=O)CCn5ccnn5)C4)c(F)c3[nH]2)CC1` [Example I-1132] belongs below 100 nM; to `COc1ccc(Cl)c(-c2cc(C3=CCCN(C(=O)CCn4ccnn4)C3)cc3[nH]c(C(=O)N(C)C)cc23)c1` [Example I-1062], below 100 nM.
Take “2-(3-(1-(cyclopropylmethyl)-7-(2-ethyl-6-methylpyridin-3-yl)-5-(4-(5-fluoro-3-methoxypyridin-2-yl)piperazine-1-carbonyl)-1H-indol-2-yl)-5,6-dihydropyridin-1(2H)-yl)-2-oxoacetic acid [Example I-1228]”: the IC50 under setting [1] is below 100 nM.
The same measure, in the same setting: for `COc1cnccc1-c1cc(C2=CCCN(C(=O)CCn3ccnn3)C2)c(F)c2[nH]c(C(=O)N3CCN(c4ccccc4OC)CC3)cc12` [Example I-407] the value was above 100000 nM.
